Measured values as given in US10414756B2, “2-(2,4,5-substituted aniline) pyrimidine derivative, pharmaceutical composition and use thereof” (Nanjing Diansu Biological Technology Co., Ltd., priority 2014, dated 2019).
Where a name gives a salt, the structure may show the parent alone.

Key:
NCI-H1975 = test: Test 5: effect in nude mice implanted with NCI-H1975; format: in vivo
Protocol: Test 5: Effect Assess in Nude Mice Implanted with NCI-H1975
To nude mice implanted with NCI-H1975, was administered 3.6 μgig (compound/nude mice weight) once a day in one group, and 7.2 μgig once a day in another group, and the tumor size was observed after continuous administration for 10 days.

[1] = Test 4: stability of compounds in human liver microsomes; format: in vitro ADME; details: for Remaining Percentage (%) 0 h / Remaining Percentage (%) 8 h / Remaining Percentage (%) 16 h / Remaining Percentage (%) 24 h / Remaining Percentage (%) 32 h / Remaining Percentage (%) 48 h: 0.5 mg/mL liver microsomal protein, 1 mM NADPH, 37° C., N=1; for Half-time period: human liver microsomes
Protocol: Test 4: Evaluation of Stability of Compounds in Human Liver Microsomes
Assay system: the metabolic stability of the compounds in the present invention were determined by employing a mixture of male and female liver microsomes (Jiangyin Qi Biotechnology Co., Ltd.) and 1 mM NADPH. Samples were analyzed by a mass spectrometer. HRMS was used to determine the peak area response ratio (corresponding to the peak area of the compound to be tested or control compound being divided by the peak area of the internal standard) without running the standard curve. In order to detect all possible metabolites, HRMS scan were performed within an appropriate m/z range.
Determination condition: the assay was performed with one time incubation (N=1). The compounds to be tested were incubated at 37° C. in a PBS buffer containing 0.5 mg/mL liver microsomal protein.
Determination quality control: compare the testosterone of control compound in parallel to determine the enzyme […] of (liver) microsomes. After the last time point, […]
Aqueous phase (A): 90% water, 10% buffer;
Organic phase (B): 90% acetonitrile, 10% buffer;
Autosampler: injection volume 10 μL

[2] = Effect Embodiment 2: rat pharmacokinetics after intragastric administration; format: in vivo, SD rats; details: rats, 25 mg/kg intragastric, n=6, compared with AZD9291
Description: 2.1. Grouping of Experimental Animals:
24 SD rats were half male and half female, randomly divided into 4 groups, 6 rats in each group, half male and half female
1-3 male, NO. […] 7-9 male, NO. 10-12 female
2.2. Experimental Reagents and Administration Modes
Intragastric Administration:
2. grouping and weighing rats;
4. the blood samples were centrifuged, supernatant was extracted, treated, and analyzed.

[3] = Dose 3.6 μg/g once a day for 10 days
[4] = Dose 7.2 μg/g once a day for 10 days

SMILES	tumor size 11th d (NCI-H1975; [3])	tumor size 0 d (NCI-H1975; Dose 3.6 μg/g once a day)	tumor size 11th d (NCI-H1975; [4])	tumor size 0 d (NCI-H1975; Dose 7.2 μg/g once a day)	inhibitory effect on tumor growth (NCI-H1975; low dose (3.6 μg/g))	Remaining Percentage (%) 0 h [1]	Remaining Percentage (%) 8 h [1]	Remaining Percentage (%) 16 h [1]	Remaining Percentage (%) 24 h [1]	Remaining Percentage (%) 32 h [1]	Remaining Percentage (%) 48 h [1]	Half-time period [1]	pharmacokinetics (mean drug concentration-time curve, FIG. 2) [2]
C=CC(=O)Nc1cc(Nc2nccc(-c3cn(C)c4ccccc34)n2)c(OC)cc1N(C)CCN(C)C.CS(=O)(=O)O [AZD9291, reference compound]	13 mm	13 mm	8 mm	12 mm	very low inhibitory effect on tumor growth	100%	82%	61%	48%	34%	14%	24 h	–
[2H]C([2H])([2H])N(C)CCN(C)c1cc(OC)c(Nc2nccc(-c3cn(C)c4ccccc34)n2)cc1NC(=O)C=C [Embodiment 1B, N-(2-{2-[methyl(D3-methyl)amino]ethyl-methylamino}-4-methoxy-5-{[4-(1-methylindol-3-yl)pyrimidin-2-yl]amino}phenyl)-2-acrylamide mesylate]	6 mm	12 mm	5 mm	13 mm	–	100%	93%	86%	77%	70%	67%	>48 h	–
[2H]C([2H])([2H])N(CCN(C)c1cc(OC)c(Nc2nccc(-c3cn(C)c4ccccc34)n2)cc1NC(=O)C=C)C([2H])([2H])[2H] [Embodiment 2B, N-(2-{2-di(D3-methyl)aminoethyl-methylamino}-4-methoxy-5-{[4-(1-methylindol-3-yl)pyrimidin-2-yl]amino}phenyl)-2-acrylamide mesylate]	5 mm	12 mm	4 mm	12 mm	–	100%	97%	90%	82%	75%	81%	>48 h	–
[2H]C([2H])([2H])n1cc(-c2ccnc(Nc3cc(NC(=O)C=C)c(N(C)CCN(C)C)cc3OC)n2)c2ccccc21 [Embodiment 3B, N-(2-{2-dimethylaminoethyl-methylamino}-4-methoxy-5-{[4-(1-D3-methyl)indol-3-yl)pyrimidin-2-yl]amino}phenyl)-2-acrylamide mesylate]	9 mm	14 mm	7 mm	13 mm	–	100%	90%	82%	73%	64%	55%	>48 h	better pharmacokinetics
[2H]C([2H])([2H])Oc1cc(N(C)CCN(C)C)c(NC(=O)C=C)cc1Nc1nccc(-c2cn(C)c3ccccc23)n1 [Embodiment 4B, N-(2-{2-dimethylaminoethyl-methylamino}-4-(D3-methoxy)-5-{[4-(1-methylindol-3-yl)pyrimidin-2-yl]amino}phenyl)-2-acrylamide mesylate]	8 mm	13 mm	6 mm	11 mm	–	100%	89%	81%	72%	63%	51%	>48 h	–
[2H]C([2H])([2H])N(CCN(C)C)c1cc(OC)c(Nc2nccc(-c3cn(C)c4ccccc34)n2)cc1NC(=O)C=C [Embodiment 5B, N-(2-{2-dimethylaminoethyl-(D3-methyl)amino}-4-methoxy-5-{[4-(1-methylindol-3-yl)pyrimidin-2-yl]amino}phenyl)-2-acrylamide mesylate]	10 mm	11 mm	8 mm	14 mm	–	100%	91%	84%	75%	69%	66%	>48 h	–
[2H]C([2H])([2H])N(CCN(C)c1cc(OC)c(Nc2nccc(-c3cn(C([2H])([2H])[2H])c4ccccc34)n2)cc1NC(=O)C=C)C([2H])([2H])[2H] [Embodiment 6B, N-(2-{2-di(D3-methyl)aminoethyl-methylamino}-4-methoxy-5-{[4-(1-(D3-methyl)indol-3-yl)pyrimidin-2-yl]amino}phenyl)-2-acrylamide mesylate]	–	–	–	–	–	100%	92%	80%	76%	65%	58%	>48 h	–
